From ChEMBL document CHEMBL1159385, “Euphane and tirucallane triterpenes from the roots of Euphorbia kansui and their in vitro effects on the cell division of Xenopus” (2003)

Legend:
[1] = species: Xenopus laevis; test: Induction of cell cleavage arrest in Xenopus laevis blastular stage cells at 10 ug/mL; format: functional, Blastula stage
[2] = species: Xenopus laevis; test: Growth inhibition of Xenopus laevis blastular stage cells at 10 ug/mL; format: functional; conditions: Blastula stage, read-out: GI

SMILES	Activity [1] [%]	inhibition of growth at 10 µg/mL [2] [%]
CC(C)=CCC[C@H](C)[C@@H]1CC[C@]2(C)C3=C(CC[C@@]12C)[C@@]1(C)CC[C@H](O)C(C)(C)[C@@H]1CC3=O	>50	–
O=c1[nH]cc(F)c(=O)[nH]1 [FLUOROURACIL]	–	47
CC(C)=CCC[C@@H](C)[C@@H]1CC[C@]2(C)C3=C(CC[C@@]12C)[C@@]1(C)CC[C@H](O)C(C)(C)[C@@H]1CC3=O [KANSENONE]	>50	–
